Test results from US10457710B2, “Antimicrobial peptides, their variants and uses” (priority 2015, dated 2019).
Where a SMILES comes first, the peptide text is derived from it. [ ]: non-standard residue; d: D form.

Experiments:
MRSA strains = assay: MIC, synergistic activity with Ertapenem (4 μg/ml); assay type: cell-based, S. aureus; details: Ertapenem 4 μg/ml; D-peptide
Description: Peptides Chain 104, Chain 105, Chain 201, Chain 308, Chain 310 were tested against antibiotic-sensitive strains of S. aureus RN4220 and methicillin resistant strains of S. aureus COL (MRSA). Chain peptides comprising of either L- or D-form amino acids were tested against these bacteria, and the D-form peptides were found have better activity compared to L-form (Table 6). Synergistic activity of chain peptides along with Ertapenem (4 μg/ml) was tested to know whether it will influence the activity against MRSA strains. […] Chain 310 has the best antibacterial activity against the MRSA strains with a MIC of 0.06 & 0.03 μg/ml along with Ertapenem (4 μg/ml) for both forms of L and D-peptides (Table 6).

[1] = tested on: Escherichia coli (ATCC 25922); assay: MIC, micro broth dilution assay; assay type: cell-based
Description: (§1) Minimum inhibition concetrations (MICs) were determined against Escherichia coli (ATCC 25922), Staphylococcus aureus (ATCC 25923), Klebsiella pneumoniae (ATCC 10031) and Pseudomonas aeruginosa (ATCC 27853). Also clinical strains of E. coli, K. pneumoniae, E. cloacae, P. aeruginosa, Serratia marcescens, Proteus mirabilis, S. pneumoniae, Acinetobacter baumannii, A. johnsonii and S. aureus were used for MICs assays. Additionally, clinical strains of yeast including Candida albicans, C. glabrata, C. parapsilosis and C. quillermondiae were used. The susceptibility of these microorganisms to Chain peptides were determined using micro broth dilution assay. Colonies of the respective microorganism from Muller Hinton (MH) agar plates incubated overnight were suspended in MH broth media and final concentration of microorganism was adjusted to 5.0×10^5 cfu/ml. An aliquot of 10 μl of each Chain peptide, or gentamicin, tetracycline as reference antibiotics were added in differing concentrations along with 90 μl of bacterial suspension to 96 well polypropylene plates and incubated at 37° C. for 20 to 24 hours. […] Similarly, antifungal MICs were tested in Potato dextrose broth.

[2] = tested on: Klebsiella pneumoniae (ATCC 10031); assay: MIC, micro broth dilution assay; assay type: cell-based
Description: as §1

[3] = tested on: Pseudomonas aeruginosa (ATCC 27853); assay: MIC, micro broth dilution assay; assay type: cell-based
Description: as §1

[4] = tested on: Staphylococcus aureus (ATCC 25923); assay: MIC, micro broth dilution assay; assay type: cell-based
Description: as §1

[5] = tested on: Escherichia coli (ATCC 25922), Staphylococcus aureus (ATCC 25923), Klebsiella pneumoniae (ATCC 10031) and Pseudomonas aeruginosa (ATCC 27853); assay: Radial diffusion assay, four ATCC bacterial strains together; assay type: cell-based; details: Gentamicin 5 μg
Description: The radial diffusion assay (RDA) was carried out as described by Andersen et al. (2010). Briefly, 30 ml of 1/10 Muller-Hinton broth (MHB) supplemented with 1% agarose and 5.0×10^5 CFU/ml S. aureus or E. coli or K. pneumoniae, P. aeruginosa cells was poured into a single-well omnitray (Nunc) and overlaid with a TSP 96-well plate. One hundred μg of each synthesized peptide was tested. The peptides were also tested against Fusarium oxysporum and Verticillium dahliae, for which ⅓ potato dextrose agarose was used. To test the synergistic effect of peptides, each peptide was mixed in equimolar concentrations. Mix1 (met1-12), Mix2 (met3, 4 and 5), Mix3 (met 8, 9 and 10), Mix 4 (met11, 12) and Mix5 (8, 9, 10, 11, 12) were prepared and tested against E. coli and S. aureus. Gentamicin and vancomycin were included as positive controls for bacteria and amphotericin B was used as the control for fungi.
By using rational design techniques, we have designed variants of peptides by incorporating or replacing various amino acids in the original peptides. Thus, we have designed and modified Chain 100, Chain 200 and Chain 300 with tryptophan (W), arginine (R) and lysine (K) at various positions to improve antimicrobial activity (FIGS. 4a-c and 5a-c). In some peptides we have also used other amino acids such as Leucine (L), Cysteine (C), Isoleucine (I), Phenylalanine (F) and Alanine (A). […]

[6] = tested on: clinical strains of bacteria and yeasts; assay: MIC, all clinical bacteria and yeasts tested together; assay type: cell-based; details: bacterial strains other than E. coli
Description: Minimum inhibition concetrations (MICs) were determined against Escherichia coli (ATCC 25922), Staphylococcus aureus (ATCC 25923), Klebsiella pneumoniae (ATCC 10031) and Pseudomonas aeruginosa (ATCC 27853). Also clinical strains of E. coli, K. pneumoniae, E. cloacae, P. aeruginosa, Serratia marcescens, Proteus mirabilis, S. pneumoniae, Acinetobacter baumannii, A. johnsonii and S. aureus were used for MICs assays. Additionally, clinical strains of yeast including Candida albicans, C. glabrata, C. parapsilosis and C. quillermondiae were used. The susceptibility of these microorganisms to Chain peptides were determined using micro broth dilution assay. Colonies of the respective microorganism from Muller Hinton (MH) agar plates incubated overnight were suspended in MH broth media and final concentration of microorganism was adjusted to 5.0×10^5 cfu/ml. An aliquot of 10 μl of each Chain peptide, or gentamicin, tetracycline as reference antibiotics were added in differing concentrations along with 90 μl of bacterial suspension to 96 well polypropylene plates and incubated at 37° C. for 20 to 24 hours. Concentrations of Chain peptides and reference antibiotics ranged from 0.125 to 128 μg/ml and the MICs were recorded as the lowest concentration with no visual growth of bacteria. Similarly, antifungal MICs were tested in Potato dextrose broth. […]

CC(C)C[C@@H](NC(=O)[C@@H](CCCCN)NC(=O)[C@@H](CCCCN)NC(=O)[C@@H](Cc1ccccc1)NC(=O)[C@@H](CC(C)C)NC(=O)[C@@H](Cc1c[nH]c2ccccc12)NC(=O)[C@@H](CCCNC(=N)N)NC(=O)[C@@H](Cc1c[nH]c2ccccc12)NC(=O)[C@@H](CCCCN)NC(=O)[C@@H](CCCNC(=N)N)NC(=O)[C@H](N)CCCCN)C(=O)O [Chain310D] (H-[dK][dR][dK][dW][dR][dW][dL][dF][dK][dK][dL]-OH)
MIC against the MRSA strains along with Ertapenem (MRSA strains): 0.03 µg/mL

Gentamicin [reference compound]
Minimum inhibitory concentration, Escherichia coli (ATCC 25922) [1]: 1 µg/mL
Minimum inhibitory concentration, Klebsiella pneumoniae (ATCC 10031) [2]: 0.25 µg/mL
Minimum inhibitory concentration, Pseudomonas aeruginosa (ATCC 27853) [3]: 0.25 µg/mL
Minimum inhibitory concentration, Staphylococcus aureus (ATCC 25923) [4]: 0.25 µg/mL
zone of inhibition, four ATCC strains [5]: 22-24 mm

CC(C)C[C@@H](NC(=O)[C@H](N)CCCNC(=N)N)C(=O)N[C@H](CCCCN)C(=O)N[C@H](CCCNC(=N)N)C(=O)N[C@H](Cc1c[nH]c2ccccc12)C(=O)N[C@H](CCCNC(=N)N)C(=O)N[C@H](CC(C)C)C(=O)N[C@H](Cc1ccccc1)C(=O)N[C@H](CCCNC(=N)N)C(=O)N[C@H](CCCCN)C(=O)N[C@H](CCCNC(=N)N)C(=O)O [Chain306D] (H-[dR][dL][dK][dR][dW][dR][dL][dF][dR][dK][dR]-OH)
activity for the rest of the bacterial strains [6]: > 32 µg/mL
